This is an account of results in patent US6056958A, “Method of treatment of arterial and venous thromboembolic disorders” (Dupont Pharmaceuticals, priority 1997, dated 2000).

The target of the assay is T1, αv /β3 receptor (Homo sapiens, UniProt P05106+P06756).
T1 construct: The αv /β3 receptor was isolated from human placental extracts prepared using octylglucoside; from tissue
Kind of assay: αv/β3-Biotinylated Vitronectin Binding Assay. The conditions noted are these: for pIC50: inhibition of vitronectin binding to purified αv/β3; for Relative Binding Affinity for αv /β3 Relative to GPIIb/IIIa: ratio of IC50 values (GPIIb/IIIa over αv/β3). From the text: Compounds may be tested for their ability to block binding of vitronectin to the αv /β3 receptor and to block the binding of fibrinogen to GPIIb/IIIa receptor in the αv /β3 -Biotinylated Vitronectin Binding Assay and GPIIb/IIIa Receptor-Biotinylated Fibrinogen Binding Assay described below.
αv /β3 -Biotinylated Vitronectin Binding Assay
The αv /β3 receptor was isolated from human placental extracts prepared using octylglucoside. The extract was passed over an anti-αv /β3 monoclonal antibody (LM609) affinity column (prepared using LM609 and Affigel 10). The column was subsequently washed extensively at pH 7 and pH 4.5 followed by elution at pH 3. The resulting sample was concentrated by wheat germ agglutinin chromatography to provide a αv /β3 -containing sample which gave two bands on SDS-PAGE which were confirmed as αv /β3 by western blotting.
The affinity purified αv /β3 protein as described above was diluted at different levels and plated to 96 well plates (about 15 ng of αv /β3 protein per well). ELISA detection of αv /β3 -bound biotinylated vitronectin was performed as described below using fixed concentration of biotinylated vitronectin (approximately 80 nM/well). This αv /β3 receptor preparation contains the αv /β3 with no detectable levels of αv /β5 according to the gel and according to effects of blocking antibodies for the αv /β3 or αv /β5 in the ELISA.
A submaximal concentration of biotinylated vitronectin was selected based on concentration response curves with fixed αv /β3 receptor concentration and variable concentrations of biotinylated vitronectin.
The purified αv /β3 receptor is diluted with coating buffer (20 mM Tris HCl, 150 mM NaCl, 2.0 mM CaCl2, 1.0 mM MgCl2.6H2 O, 1.0 mM MnCl2.4H2 O) and coated (100 μL/well) on Costar (3590) high capacity 96-well plates overnight at 4° C. The coating solution is discarded and the plates washed once with blocking/binding buffer (B/B buffer: 50 mM Tris HCl, 100 mM NaCl, 2.0 mM CaCl2, 1.0 mM MgCl2.6H2 O, 1.0 mM MnCl2.4H2 O). The plate-immobilized αv /β3 receptor is then blocked (200 μl/well) with 3.5% BSA in B/B buffer for 2 hours at room temperature. After washing once with 1.0% BSA in B/B buffer, biotinylated vitronectin (100 μL) and either test compound (inhibitor) (11 μL) or B/B buffer w/1.0% BSA (11 μL) is added to each well. The plates are incubated 2 hours at room temperature. The plates are washed twice with B/B buffer and incubated 1 hour at room temperature with anti-biotin alkaline phosphatase (100 μL/well) in B/B buffer containing 1.0% BSA. The plates are washed twice with B/B buffer and alkaline phosphatase substrate (100 μL) is added. Color is developed at room temperature. Color development is stopped by addition of 2N NaOH (25 μL/well) and absorbance is read at 405 nm.
The inhibitory binding constant (Ki) of test agents 30 may be calculated under this assay system using Michaelis-Menten analysis. The IC50 is the concentration of test substance needed to block 50% of the vitronectin binding to the αv /β3 receptor. The IC50 for the inhibition of binding of vitronectin to the αv /β3 receptor was determined based on time averaged values for the inhibition of vitronectin binding. Thus, the inhibition of vitronectin binding for each concentration of test compound was measured every 30 seconds over a 2 hour period and the average value of inhibition of vitronectin binding over such 2 hour period was used for the determination of the IC50.

pIC50: −log10 of the molar value. Non-standard residues stand in square brackets, D forms with d. Residues, ends and D or L forms follow the SMILES beside them. 3Amb = NCc1cccc(C(=O)O)c1

T1 sequence (P06756 31-889 limits assumed): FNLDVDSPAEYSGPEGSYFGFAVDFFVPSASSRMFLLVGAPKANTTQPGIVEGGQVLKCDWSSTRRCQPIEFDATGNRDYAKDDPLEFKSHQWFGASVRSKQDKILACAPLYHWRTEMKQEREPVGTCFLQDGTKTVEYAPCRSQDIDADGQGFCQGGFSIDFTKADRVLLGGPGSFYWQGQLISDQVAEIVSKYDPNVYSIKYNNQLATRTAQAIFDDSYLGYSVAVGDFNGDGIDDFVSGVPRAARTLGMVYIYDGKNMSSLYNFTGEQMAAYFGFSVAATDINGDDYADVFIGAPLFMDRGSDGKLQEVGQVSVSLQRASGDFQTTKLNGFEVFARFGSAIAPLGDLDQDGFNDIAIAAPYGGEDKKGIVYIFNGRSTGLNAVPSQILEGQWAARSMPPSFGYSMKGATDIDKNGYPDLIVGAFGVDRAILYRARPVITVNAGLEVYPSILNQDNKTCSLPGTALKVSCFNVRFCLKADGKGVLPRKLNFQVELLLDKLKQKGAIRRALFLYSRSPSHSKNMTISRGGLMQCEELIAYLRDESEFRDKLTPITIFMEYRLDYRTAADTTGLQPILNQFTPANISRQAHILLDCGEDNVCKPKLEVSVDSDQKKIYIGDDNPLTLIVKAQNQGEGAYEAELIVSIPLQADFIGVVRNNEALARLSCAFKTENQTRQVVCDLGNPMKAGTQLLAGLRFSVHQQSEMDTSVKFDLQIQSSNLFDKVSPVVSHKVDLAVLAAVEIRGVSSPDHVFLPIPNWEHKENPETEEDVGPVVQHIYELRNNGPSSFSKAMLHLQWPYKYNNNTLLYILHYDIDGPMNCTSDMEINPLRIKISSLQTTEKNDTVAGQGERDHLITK
T1 sequence (P06756 891-1048 partner limits assumed): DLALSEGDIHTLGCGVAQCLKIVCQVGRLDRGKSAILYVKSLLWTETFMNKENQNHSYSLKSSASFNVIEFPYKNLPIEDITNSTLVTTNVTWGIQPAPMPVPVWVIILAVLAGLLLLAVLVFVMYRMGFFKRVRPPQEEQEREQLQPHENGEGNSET
T1 sequence (P05106 27-788): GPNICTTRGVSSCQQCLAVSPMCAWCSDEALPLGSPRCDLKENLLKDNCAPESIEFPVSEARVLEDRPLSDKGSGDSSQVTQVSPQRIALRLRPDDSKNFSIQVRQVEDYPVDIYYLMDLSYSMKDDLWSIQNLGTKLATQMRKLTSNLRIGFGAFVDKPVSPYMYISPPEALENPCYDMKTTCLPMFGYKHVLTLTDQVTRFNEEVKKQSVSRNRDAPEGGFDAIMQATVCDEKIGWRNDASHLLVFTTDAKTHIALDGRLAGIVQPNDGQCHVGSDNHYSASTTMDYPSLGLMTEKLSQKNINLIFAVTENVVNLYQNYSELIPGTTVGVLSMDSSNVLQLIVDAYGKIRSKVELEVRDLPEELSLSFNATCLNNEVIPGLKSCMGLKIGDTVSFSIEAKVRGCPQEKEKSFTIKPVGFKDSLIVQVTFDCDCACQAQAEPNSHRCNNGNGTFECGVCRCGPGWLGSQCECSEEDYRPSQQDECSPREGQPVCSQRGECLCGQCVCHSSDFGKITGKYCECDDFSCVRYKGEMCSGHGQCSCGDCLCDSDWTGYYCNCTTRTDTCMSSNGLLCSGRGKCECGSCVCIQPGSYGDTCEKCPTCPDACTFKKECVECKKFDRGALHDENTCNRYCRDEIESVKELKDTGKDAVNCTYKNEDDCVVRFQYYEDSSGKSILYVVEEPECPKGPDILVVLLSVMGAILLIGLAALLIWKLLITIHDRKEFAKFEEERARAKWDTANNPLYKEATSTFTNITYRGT

With `C[C@@H]1NC(=O)c2cccc(c2)CNC(=O)[C@H](CC(=O)O)NC(=O)CNC(=O)[C@H](CCCNC(=N)N)NC1=O` [Compound A, cyclo-(Ala-Arg-Gly-Asp-Mamb)] (cyclo(RGD[3Amb]A)), the negative-log IC50 (pIC50) (as a rule, the negative decadic logarithm of the IC50, by convention in mol/L) is 8.42 and the “Relative Binding Affinity for αv /β3 Relative to GPIIb/IIIa” value amounted to 107.
On the same counts, the results for `N=C(N)NCCC[C@@H]1NC(=O)[C@@H]2CCCN2C(=O)c2cccc(c2)CNC(=O)[C@H](CC(=O)O)NC(=O)CNC1=O` [Compound B, cyclo-(Pro-Arg-Gly-Asp-Mamb)] (cyclo(RGD[3Amb]P)) are 9.15 and 2171.
